Tested on: Melanocytes (B16 cell line)
Test: Melanogenesis Inhibition Assay
Type: cell-based
Conditions: for Protein level (rate of cellular proteins) / Melanin level: B16 melanocytes, 3 days incubation, mean +/− SEM; for Protein level (rate of cellular proteins): Bradford's method; for Melanin level: optical density at 475 nm
Procedure: Melanocytes (B16 cell line) were inoculated in standard medium of cell culture with foetal calf serum (FCS). After an incubation of 3 days at 37° C. under 5% CO2, growth medium was exchanged for standard medium with a range of concentrations for each compound to be tested and a control without ingredient. After an incubation of 3 days, the level of melanin was measured by recording the optical density at 475 nm. After washing the cells with a balanced salt buffer, and homogenisation in a solution of 0.1 M NaOH, the number of viable cells was determined by evaluation of the level of cellular proteins (Bradford's method).
The results are expressed in % against control (cell culture medium without compound) as a mean+/−SEM (Standard Error of Mean) on 2 or 3 assays, each in triplicate.

SMILES	Protein level (rate of cellular proteins) (dose 0.0003 % (w/v))	Melanin level (dose 0.0003 % (w/v))	Protein level (rate of cellular proteins) (dose 0.001 % (w/v))	Melanin level (dose 0.001 % (w/v))	Protein level (rate of cellular proteins) (dose 0.003 % (w/v))	Melanin level (dose 0.003 % (w/v))	Protein level (rate of cellular proteins) (dose 0.01 % (w/v))	Melanin level (dose 0.01 % (w/v))	cell toxicity (summary in words of Table 3)	rate of melanin synthesis in melanocytes (summary in words of Table 3)
COc1cc(/C=C/C(=O)O)cc(OC)c1OC(C)=O [example 1, 3,5-dimethoxy-4-acetoxy-cinnamic acid]	100 +/− 1 %/control	86 +/− 2 %/control	95 +/− 1 %/control	67 +/− 2 %/control	93 +/− 3 %/control	26 +/− 1 %/control	81 +/− 10 %/control	19 +/− 2 %/control	without cell toxicity	decreased
CCOC(=O)/C(=C/c1cc(OC)c(O)c(OC)c1)C(C)=O [example 2]			110 +/− 10 %/control	108 +/− 3 %/control	123 +/− 9 %/control	54 +/− 6 %/control			without cell toxicity	

Reference: patent US8580775B2, “Use of derivatives of sinapinic acid and compositions comprising such derivatives” (Cognis IP Management GmbH, priority 2007, dated 2013)
